Test results as given in ChEMBL document CHEMBL5137055, “Near-Infrared Fluorescent Probes as Imaging and Theranostic Modalities for Amyloid-Beta and Tau Aggregates in Alzheimer's Disease” (J Med Chem, 2022).
pKd, pKi: −log10 of the molar value.

Legend:
[1] = Binding affinity to amyloid beta (unknown origin) oligomer; set-up: species or system Homo sapiens
[2] = Binding affinity to amyloid beta (unknown origin) monomer; set-up: species or system Homo sapiens
[3] = Binding affinity to amyloid beta (unknown origin) aggregates; set-up: species or system Homo sapiens
[4] = Binding affinity to soluble amyloid beta (unknown origin); set-up: species or system Homo sapiens
[5] = Binding affinity to insoluble amyloid beta (unknown origin); set-up: species or system Homo sapiens
[6] = molecular target: T1, Amyloid-beta precursor protein (Homo sapiens, UniProt P05067); assay: Displacement of [125I]IMPY from amyloid beta (1 to 42) (unknown origin) measured by competitive radioligand binding assay
[7] = Drug uptake in brain of Tg mouse at 2 mins post injection; type: ADME, tissue-based; conditions: read-out: Drug uptake
[8] = molecular target: T1, Amyloid-beta precursor protein; assay: Displacement of [125I]IMPY from amyloid beta (1 to 40) (unknown origin) measured by competitive radioligand binding assay
[9] = Binding affinity to mouse brain amyloid beta plaques
[10] = molecular target: T1, Amyloid-beta precursor protein; assay: Binding affinity to human amyloid beta (1 to 42) oligomer measured by fluorescence polarization assay
Albumin = Albumin (Bos taurus, UniProt P02769); assay: Binding affinity to bovine serum albumin
[11] = molecular target: T1, Amyloid-beta precursor protein; assay: Binding affinity to human amyloid beta (1 to 42) monomer measured by fluorescence polarization assay
[12] = molecular target: T1, Amyloid-beta precursor protein; assay: Binding affinity to human amyloid beta (1 to 42) aggregates measured by fluorescence polarization assay

T1 sequence (P05067 whole entry): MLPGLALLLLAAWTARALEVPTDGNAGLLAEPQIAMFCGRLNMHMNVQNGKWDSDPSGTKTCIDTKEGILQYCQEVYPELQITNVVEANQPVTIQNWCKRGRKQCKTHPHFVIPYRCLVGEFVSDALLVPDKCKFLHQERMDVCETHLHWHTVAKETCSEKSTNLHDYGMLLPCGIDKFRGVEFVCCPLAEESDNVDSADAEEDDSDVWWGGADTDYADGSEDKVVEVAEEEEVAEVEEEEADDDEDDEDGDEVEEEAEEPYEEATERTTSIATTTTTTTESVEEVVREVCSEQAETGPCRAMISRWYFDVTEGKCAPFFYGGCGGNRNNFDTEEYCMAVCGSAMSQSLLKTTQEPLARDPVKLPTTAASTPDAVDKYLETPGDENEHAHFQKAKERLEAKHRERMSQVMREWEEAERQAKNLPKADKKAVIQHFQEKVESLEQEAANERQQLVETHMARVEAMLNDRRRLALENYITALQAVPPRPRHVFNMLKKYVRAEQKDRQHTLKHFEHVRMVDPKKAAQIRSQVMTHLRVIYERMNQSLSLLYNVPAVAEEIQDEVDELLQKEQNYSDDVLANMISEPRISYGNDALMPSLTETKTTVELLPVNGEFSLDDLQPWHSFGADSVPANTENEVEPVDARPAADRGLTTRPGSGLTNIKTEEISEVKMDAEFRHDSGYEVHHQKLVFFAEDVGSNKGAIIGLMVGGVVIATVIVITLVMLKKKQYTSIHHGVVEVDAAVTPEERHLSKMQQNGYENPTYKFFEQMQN
Chain of Albumin (P02769 whole entry): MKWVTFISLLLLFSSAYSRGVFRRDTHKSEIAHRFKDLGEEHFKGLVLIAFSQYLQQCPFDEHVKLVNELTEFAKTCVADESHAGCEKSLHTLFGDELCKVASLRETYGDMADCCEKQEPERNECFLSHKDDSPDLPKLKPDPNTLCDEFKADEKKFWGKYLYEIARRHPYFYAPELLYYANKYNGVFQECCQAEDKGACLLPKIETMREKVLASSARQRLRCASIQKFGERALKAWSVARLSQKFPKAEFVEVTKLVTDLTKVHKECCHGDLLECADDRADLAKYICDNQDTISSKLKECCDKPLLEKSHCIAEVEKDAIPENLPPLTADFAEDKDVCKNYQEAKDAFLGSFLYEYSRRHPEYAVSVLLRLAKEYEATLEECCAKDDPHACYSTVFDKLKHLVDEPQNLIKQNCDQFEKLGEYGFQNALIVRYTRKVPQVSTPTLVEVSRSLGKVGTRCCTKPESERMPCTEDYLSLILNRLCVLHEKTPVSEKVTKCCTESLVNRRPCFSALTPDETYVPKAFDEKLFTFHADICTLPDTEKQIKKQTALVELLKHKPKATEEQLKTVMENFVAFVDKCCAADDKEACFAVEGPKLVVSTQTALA

`CC1=CC(C)=[N+]2C1=C(CCCN1CCNc3ccccc31)c1c(C)cc(/C=C/c3ccc(N(C)C)s3)n1[B-]2(F)F` gave a pKd [1] of 7.57, a pKd [2] of 8.22 and a pKd [3] of 7.74.

`CCN(CC)c1ccc(/C=C/C2=[O+][B-](F)(F)OC(/C=C/c3ccc(N(CC)CC)nc3)=C2CCCOc2c(C)cccc2C)cn1` showed a pKd [4] of 8.12 and a pKd [5] of 6.30.

`CN1C(=O)C(=C/C=C/C=C/c2ccc(N(C)C)cc2)C(=O)N(C)C1=O` showed a pKi [6] of 7.86, a tissue uptake at 2 min [7] of 0.83 %ID/g and a pKd [8] of 7.62.

Compound `CN(C)c1ccc(/C=C/C2=[O+][B-](F)(F)OC(/C=C/c3ccc(OCCOCCF)cc3)=C2)cc1` has a pKd [9] of 7.71.

With `COc1cc(/C=C/C(=O)/C(Cc2cn(CCCCCCNC(=O)CCNC(=O)CCNC(=O)CO[C@H]3CC[C@@]4(C)C(=CC[C@H]5[C@@H]6CC[C@H]([C@@H](C)CCCC(C)C)[C@@]6(C)CC[C@@H]54)C3)nn2)=C(O)/C=C/c2ccc(O)c(OC)c2)ccc1O` the pKd [10] was 5.66, the pKd (Albumin) was 4.15 and the pKd [11] was 5.69. It also gave a pKd [12] of 6.08.
